Assay results from patent publication US5856095A, “Identification of two novel mutant alleles of human thiopurine S-methyltransferase, and diagnostic uses thereof” (priority 1995, dated 1999).
Entries after “also recorded” stand apart in the source; their conditions may differ. Where two headings read alike, the source gives them in different places.

What was measured:
TPMT460 = test system: TPMT460
Text: (§1) FIGS. 9A, 9B, and 9C depict comparison of TPMT mRNA, protein, and activity levels in yeast transformed with vector alone without any insert (lane 1), vector with wild-type cDNA (lane 2), vector with cDNA containing G460A (lane 3), vector with cDNA containing A719G (lane 4), vector with cDNA containing both G460A and A719G (TPMTB) (lanes 5 and 6).
(§2) The wild type and mutant cDNA clones were used as templates for site-directed mutagenesis. PCR conditions were as described above except that annealing temperature was changed to 50° C. and 1.3 units of Pyrococcus furiosus DNA polymerase (Stratagene, La Jolla, Calif.) was used. […] In order to prepare cDNA containing either mutation found in this patient, two reverse primers were designed for further mutagenesis. […] The resultant PCR products were also ligated into the expression vector. […] Nucleotide structures of all cDNAs were confirmed by sequencing.
(§3) Yeast cells were treated with Lyticase (Sigma, St. Louis, Mo.), sedimented after washing with a buffer (pH 6.2) containing 20 mM 2-[N-morpholino]ethanesulfonic acid (MES) and 1.5M sorbitol, and resuspended with Tris-HCl buffer (pH 7.8) containing 100 KIU/Ml aprotinin and 1 mM phenylmethylsulfonyl fluoride. After sonication, the cytosolic fraction was obtained by centrifugation at 100,000 g for 60 min at 4° C. […] The level of expression was measured by Western blot analysis.
(§4) The amount of TPMT in each reaction was made the same (0.57 μg TPMT) by adjusting the amount of yeast cytosol according to TPMT protein levels detected by the Western-blot analysis.

TPMT719 = target: T1, TPMT719 (Homo sapiens, UniProt P51580, Y240C)
T1 sequence (P51580 1-245 Y240C): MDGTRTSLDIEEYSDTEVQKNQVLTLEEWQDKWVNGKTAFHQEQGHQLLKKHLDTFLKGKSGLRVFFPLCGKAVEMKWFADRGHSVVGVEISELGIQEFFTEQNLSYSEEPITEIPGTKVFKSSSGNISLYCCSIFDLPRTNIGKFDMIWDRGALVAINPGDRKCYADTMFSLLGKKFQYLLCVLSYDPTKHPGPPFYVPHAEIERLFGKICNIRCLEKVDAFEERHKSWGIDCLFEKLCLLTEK
Text: as §1, §2, §3, §4

TPMTB = target: T2, TPMTB (Homo sapiens, UniProt P51580, A154T/Y240C); assay: S-methylation of 6-MP catalyzed by TPMTB (G460A and A719G) expressed in yeast (kinetic parameters, activity); assay type: biochemical; details: 6MP concentrations up to 2 mM
T2 construct: the whole mutant proteins are expressed in yeast; made in house; host or cells: yeast strain 2805
T2 sequence (P51580 1-245 A154T/Y240C): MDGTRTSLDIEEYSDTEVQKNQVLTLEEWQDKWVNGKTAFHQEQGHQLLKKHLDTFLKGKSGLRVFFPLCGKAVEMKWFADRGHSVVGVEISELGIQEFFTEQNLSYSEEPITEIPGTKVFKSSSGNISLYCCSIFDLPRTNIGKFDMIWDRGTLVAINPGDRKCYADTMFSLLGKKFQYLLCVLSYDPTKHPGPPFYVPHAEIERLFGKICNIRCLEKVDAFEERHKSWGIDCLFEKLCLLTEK
Description: Yeast cells transformed with recombinant expression vectors or the vector without TPMT cDNA (control) were grown on galactose-containing medium for 24 hr at 30° C. Yeast cells were treated with Lyticase (Sigma, St. Louis, Mo.), sedimented after washing with a buffer (pH 6.2) containing 20 mM 2-[N-morpholino]ethanesulfonic acid (MES) and 1.5M sorbitol, and resuspended with Tris-HCl buffer (pH 7.8) containing 100 KIU/Ml aprotinin and 1 mM phenylmethylsulfonyl fluoride. After sonication, the cytosolic fraction was obtained by centrifugation at 100,000 g for 60 min at 4° C. The concentration of protein in yeast lysates was determined using the Bio-RadDC protein assay (Lowry, O. H., et al., J. Biol. Chem. 193:265-275 (1951)). The level of expression was measured by Western blot analysis.
These reaction conditions differ from that previously published (Krynetski, E. Y. et al., Mol. Pharmacol. 47:1141-1147 (1995)); i.e. incubation at 37 C instead of 21.5 C, analysis of MeMP production formation instead of substrate disappearance, and the use of higher substrate concentrations in the present study. The amount of TPMT in each reaction was made the same (0.57 μg TPMT) by adjusting the amount of yeast cytosol according to TPMT protein levels detected by the Western-blot analysis. […]

[1] = Hematopoietic toxicity of thiopurines in TPMT-deficient patients; assay type: in vivo, human
Description: TPMT phenotype was assigned on the basis of erythrocyte TPMT activity, according to the criteria of Weinshilboum and Sladek (Weinshilboum and Sladek, Am. J. Hum. Genet. 32:651-662 (1980)).

TPMTA = TPMTA (Homo sapiens, UniProt P51580, A80P); details: heterologously expressed TPMTA
[2] = human, in vivo
[3] = patients with TPMT deficiency treated with standard dosages; cited from earlier work
TPMT [4] = assay: TPMT enzymatic activity of yeast lysates expressing wild-type or G238C mutant TPMT cDNA (Example 1); assay type: biochemical, human; details: for enzymatic activity, fold difference between wild-type and G238C mutant TPMT: expressed in yeast; for TPMT activity in yeast lysates: yeast transformed with wild-type or G238C mutant TPMT cDNA
Description: In all experiments on heterologous expression of TPMT, yeast transformed with the expression vector without the TPMT cDNA insert was used as a control.
Enzymatic activity of yeast lysates was assayed in a total volume of 1 ml, and formation of the S-methylated thiopurine product was determined by HPLC.

TPMT [5] = assay: Intrinsic stability of recombinant TPMT proteins at 37° C. in vitro; assay type: biochemical, human; details: for time to inactivation: 0.1M Tris-HCl pH 7.5; for TPMT activity at 37° C., 0 hr: yeast lysates, 2 mM 6MP and 1 mM SAM
Description: Yeast cytosols expressing wild-type TPMT460, or TPMT719 protein were incubated in 0.1M Tris-HCl (pH 7.5) at 37° C. […] The assay of TPMT activity was then allowed to proceed for 15 min at 37° C., and MeMP was measured as described above. Total protein concentrations of yeast lysate in the incubation mixture were 0.09, 0.37, 0.08 mg/ml for the wild-type, TPMT460, and TPMT719, respectively, to give equal amount of TPMT in the incubation. The same assay mixture without yeast lysate served as the blank, and the background values for non-enzymatic methylation (<10%) were subtracted from all values obtained. An aliquot of sample at each time point was taken for Western blot analysis. The samples at 0° C., 0 hr served as controls for the blots with TPMT460 and TPMT719.

[6] = yeast lysates, 10 μM 6MP and 1 mM SAM (FIG. 9C)

Sc1ncnc2nc[nH]c12 [6MP, 6-mercaptopurine]
increase in Km for 6MP versus wild-type (TPMT460; substrate 6MP): 46 fold | catalytic activity reduced compared with wild-type, normalized to TPMT content (TPMT460; [6]): 9 fold | intrinsic clearance (Vmax/Km) relative to wild-type (TPMT719): comparable to wild-type | catalytic activity reduced compared with wild-type, normalized to TPMT content (TPMT719; [6]): 1.4 fold | TPMT activity (S-methylation of 6MP) (TPMTB): no activity of TPMTB could be detected; also recorded: undetectable | hematopoietic toxicity ([1]; TPMT-deficient child with acute lymphoblastic leukemia, oral 75 mg/m2 per day): severe hematopoietic toxicity | hematopoietic toxicity ([1]; TPMT-deficient child with acute lymphocytic leukemia, 50 mg/m2/day): severe hematopoietic toxicity | Vmax/Km ratio, fold lower than wild-type TPMT (TPMTA): 5 fold | erythrocyte concentration of TGNs, fold higher than the population median [2]: > 15 fold | erythrocyte concentration of TGNs, population median [2]: 280 pmol/ml pRBC | hematopoietic toxicity [3]: severe hematopoietic toxicity

C[S+](CC[C@H](N)C(=O)O)C[C@H]1O[C@@H](n2cnc3c(N)ncnc32)[C@H](O)[C@@H]1O (some centres unmarked) [SAM]
increase in Km for co-substrate SAM versus wild-type (TPMT460; co-substrate SAM): 200 fold

Cn1cnc([N+](=O)[O-])c1Sc1ncnc2nc[nH]c12 [azathioprine]
hematopoietic toxicity [3]: severe hematopoietic toxicity

B1: TPMTA: mutant TPMT with G238C point mutation, Ala80→Pro, expressed in yeast (protein)
chain: MDGTRTSLDIEEYSDTEVQKNQVLTLEEWQDKWVNGKTAFHQEQGHQLLKKHLDTFLKGKSGLRVFFPLCGKAVEMKWFPDRGHSVVGVEISELGIQEFFTEQNLSYSEEPITEIPGTKVFKSSSGNISLYCCSIFDLPRTNIGKFDMIWDRGALVAINPGDRKCYADTMFSLLGKKFQYLLCVLSYDPTKHPGPPFYVPHAEIERLFGKICNIRCLEKVDAFEERHKSWGIDCLFEKLYLLTEK
enzymatic activity, fold difference between wild-type and G238C mutant TPMT (TPMT [4]): approximately 100 fold | enzymatic activity, fold difference between wild-type and G238C mutant TPMT (TPMT [4]; listed as mutant TPMT): ≈ 100 fold | TPMT activity in yeast lysates (TPMT [4]): < 1.0 nmol/hr per mg of protein

B2: TPMT460: TPMT from cDNA containing only G460A (Ala154→Thr), expressed in yeast (protein)
chain: MDGTRTSLDIEEYSDTEVQKNQVLTLEEWQDKWVNGKTAFHQEQGHQLLKKHLDTFLKGKSGLRVFFPLCGKAVEMKWFADRGHSVVGVEISELGIQEFFTEQNLSYSEEPITEIPGTKVFKSSSGNISLYCCSIFDLPRTNIGKFDMIWDRGTLVAINPGDRKCYADTMFSLLGKKFQYLLCVLSYDPTKHPGPPFYVPHAEIERLFGKICNIRCLEKVDAFEERHKSWGIDCLFEKLYLLTEK
time to inactivation (TPMT [5]; 37° C.): ≤ 4 h | TPMT activity at 37° C., 0 hr (TPMT [5]): 142.5 nmol/min/mg TPMT

B3: wild-type TPMT: wild-type human thiopurine S-methyltransferase expressed in yeast (protein)
chain: MDGTRTSLDIEEYSDTEVQKNQVLTLEEWQDKWVNGKTAFHQEQGHQLLKKHLDTFLKGKSGLRVFFPLCGKAVEMKWFADRGHSVVGVEISELGIQEFFTEQNLSYSEEPITEIPGTKVFKSSSGNISLYCCSIFDLPRTNIGKFDMIWDRGALVAINPGDRKCYADTMFSLLGKKFQYLLCVLSYDPTKHPGPPFYVPHAEIERLFGKICNIRCLEKVDAFEERHKSWGIDCLFEKLYLLTEK
TPMT activity in yeast lysates (TPMT [4]): 113-123 nmol/hr per mg of protein | TPMT activity remaining (TPMT [5]; 37° C., 12 hr): 30% | TPMT activity at 37° C., 0 hr (TPMT [5]): 83.7 nmol/min/mg TPMT

B4: TPMT719: TPMT from cDNA containing only A719G (Tyr240→Cys), expressed in yeast (protein)
chain: MDGTRTSLDIEEYSDTEVQKNQVLTLEEWQDKWVNGKTAFHQEQGHQLLKKHLDTFLKGKSGLRVFFPLCGKAVEMKWFADRGHSVVGVEISELGIQEFFTEQNLSYSEEPITEIPGTKVFKSSSGNISLYCCSIFDLPRTNIGKFDMIWDRGALVAINPGDRKCYADTMFSLLGKKFQYLLCVLSYDPTKHPGPPFYVPHAEIERLFGKICNIRCLEKVDAFEERHKSWGIDCLFEKLCLLTEK
time to inactivation (TPMT [5]; 37° C.): ≤ 4 h | TPMT activity at 37° C., 0 hr (TPMT [5]): 88.6 nmol/min/mg TPMT
